Here are results for 15 compounds from patent US9131690B2, “Macrocyclic picolinamides as fungicides” (Dow AgroSciences LLC, priority 2012, dated 2015).

Where two headings read alike, the source gives them in different places.

Series [1] has as its system Puccinia triticina. Synonym: Puccinia recondite f. sp. tritici. Kind of series: Fungicidal activity: Wheat Brown Rust (PUCCRT), wheat plants variety Yuma. Set-up: key to PUCCRT 3DC Disease Control: A: 50-100; B: More than 0-Less than 50; C: Not Tested; D: No activity noticed in this bioassay. The format is in vivo. To be noted: for pest or weed control at 100 ppm: Puccinia triticina; for PUCCRT 3DC Disease Control: 100 ppm. The method, then:
Evaluation of Fungicidal Activity: Wheat Brown Rust (Puccinia triticina. Synonym: Puccinia recondite f. sp. tritici; Bayer Code PUCCRT) Wheat plants (variety Yuma) were grown from seed in a greenhouse in 50% mineral soil/50% soil-less Metro mix until the first leaf was fully emerged, with 7-10 seedlings per pot. These plants were inoculated with an aqueous spore suspension of Puccinia recondite f. sp. tritici either prior to or after fungicide treatments. After inoculation the plants were kept in 100% relative humidity overnight to permit spores to germinate and infect the leaf. The plants were then transferred to a greenhouse set at 24 C for disease to develop.

Series [2] deals with Mycosphaerella graminicola; Anamorph: Septoria tritici. Kind of series: Fungicidal activity: Leaf Blotch of Wheat (SEPTTR), wheat plants variety Yuma. The format is in vivo. More on the design: key to SEPTTR 3DC Disease Control: A: 50-100; B: More than 0-Less than 50; C: Not Tested; D: No activity noticed in this bioassay. To be noted: for pest or weed control at 100 ppm: Zymoseptoria tritici; for SEPTTR 3DC Disease Control: 100 ppm. The method, then: Evaluation of Fungicidal Activity: Leaf Blotch of Wheat (Mycosphaerella graminicola; Anamorph: Septoria tritici; Bayer Code […]) Wheat plants (variety Yuma) were grown from seed in a greenhouse in 50% mineral soil/50% soil-less Metro mix until the first leaf was fully emerged, with 7-10 seedlings per pot. These plants were inoculated with an aqueous spore suspension of Septoria tritici either prior to or after fungicide treatments. After inoculation the plants were kept in 100% relative humidity (one day in a dark dew chamber followed by two to three days in a lighted dew chamber) to permit spores to germinate and infect the leaf. The plants were then transferred to a greenhouse at 20° C. for disease to develop.

The mark [3] stands for this setting: 24 h, 1 Day Protectant, read-out: PUCCRT 1DP Disease Control.
[4] abbreviates: 72 h, 3 Day Curative, read-out: PUCCRT 3DC Disease Control.
[5] abbreviates: 24 h, 1 Day Protectant, read-out: SEPTTR 1DP Disease Control.
[6] abbreviates: 72 h, 3 Day Curative, read-out: SEPTTR 3DC Disease Control.

As to `CC[C@H]1C(=O)OC[C@H](NC(=O)c2nccc(OC)c2OC(C)=O)C(=O)O[C@@H](C)[C@@H]1OC(=O)C(C)C` [Compound 69], the melting point (as a rule, the temperature, or range, at which the solid turns liquid) lay in the range of 158 to 161 °C. In series [1] (setting [3]), the pest or weed control at 100 ppm lay within 50 to 100%. Also, in series [1] (setting [4]), the pest or weed control at 100 ppm lay within 50 to 100%. Besides, in series [2] (setting [5]), the pest or weed control at 100 ppm lay in the range of 50 to 100%. Besides, the pest or weed control at 100 ppm in series [2] (setting [6]) fell in the range of 50 to 100%.

As to `COc1ccnc(C(=O)N[C@H]2COC(=O)[C@H](Cc3ccc(C(F)(F)F)cc3)[C@@H](OC(=O)C(C)C)[C@H](C)OC2=O)c1OC(C)=O` [Compound 67], the melting point lay within 127 to 134 °C. The pest or weed control at 100 ppm in series [1] (setting [3]) lay within 50 to 100%. In addition, the pest or weed control at 100 ppm in series [1] (setting [4]) lay within 50 to 100%. Moreover, the “SEPTTR 3DC Disease Control” value in series [2] (3 Day Curative) is on record as “D”. Moreover, in series [2] (setting [5]), the pest or weed control at 100 ppm was 0 to 50%.

`COc1ccnc(C(=O)N[C@H]2COC(=O)[C@H](CCOS(C)(=O)=O)[C@@H](OC(=O)C(C)C)[C@H](C)OC2=O)c1O` [Compound 56, (3S,6S,7R,8R)-3-(3-hydroxy-4-methoxypicolinamido)-6-methyl-8-(2(methylsulfonyloxy)ethyl)-4,9-dioxo-1,5-dioxonan-7-yl isobutyrate]: the melting point is 153 to 155 °C. In addition, the pest or weed control at 100 ppm in series [1] (setting [3]) lay in the range of 50 to 100%. The pest or weed control at 100 ppm in series [1] (setting [4]) fell in the range of 0 to 50%. For the same compound, the pest or weed control at 100 ppm in series [2] (setting [5]) was 0 to 50%. For the same compound, the pest or weed control at 100 ppm in series [2] (setting [6]) fell in the range of 0 to 50%.

In turn, `CCOCC[C@H]1C(=O)OC[C@H](NC(=O)c2nccc(OC)c2O)C(=O)O[C@@H](C)[C@@H]1OC(=O)C(C)C` [Compound 45] showed a melting point of 134 to 136 °C. The pest or weed control at 100 ppm in series [1] (setting [3]) is 50 to 100%. In addition, the pest or weed control at 100 ppm in series [1] (setting [4]) fell in the range of 50 to 100%. Also, the pest or weed control at 100 ppm in series [2] (setting [5]) lay in the range of 0 to 50%. Also, in series [2] (setting [6]), the pest or weed control at 100 ppm was in the range of 0 to 50%.

`COc1ccnc(C(=O)N[C@H]2COC(=O)[C@H](CC(=O)OC(C)C)[C@@H](OC(=O)C(C)C)[C@H](C)OC2=O)c1O` [Compound 49]: the melting point lay in the range of 169 to 170 °C. For the same compound, the pest or weed control at 100 ppm in series [1] (setting [3]) lay within 50 to 100%. Moreover, the pest or weed control at 100 ppm in series [1] (setting [4]) was 50 to 100%. For the same compound, the pest or weed control at 100 ppm in series [2] (setting [5]) was 50 to 100%. Also, in series [2] (setting [6]), the pest or weed control at 100 ppm fell in the range of 50 to 100%.

The compound `COc1ccnc(C(=O)N[C@H]2COC(=O)[C@H](Cc3ccccn3)[C@@H](OC(=O)C(C)C)[C@H](C)OC2=O)c1O` [Compound 3] displayed a melting point of 92 to 95 °C. Also, the pest or weed control at 100 ppm in series [1] (setting [3]) was in the range of 50 to 100%. Moreover, the pest or weed control at 100 ppm in series [1] (setting [4]) lay within 50 to 100%. In series [2] (setting [5]), the pest or weed control at 100 ppm lay within 50 to 100%. For the same compound, the pest or weed control at 100 ppm in series [2] (setting [6]) lay within 50 to 100%.

`COc1ccnc(C(=O)N[C@H]2COC(=O)[C@H](CCn3cc(-c4cccc(Cl)c4)nn3)[C@@H](OC(=O)C(C)C)[C@H](C)OC2=O)c1O` [Compound 54, (3S,6S,7R,8R)-8-(2-(4-(3-chlorophenyl)-1H-1,2,3-triazol-1-yl)ethyl)-3-(3-hydroxy-4 methoxypicolinamido)-6-methyl-4,9-dioxo-1,5-dioxonan-7-yl isobutyrate] had a melting point of 222 to 224 °C. Besides, the “PUCCRT 3DC Disease Control” value in series [1] (3 Day Curative) is “D”. Also, in series [1] (setting [3]), the pest or weed control at 100 ppm lay in the range of 50 to 100%. In addition, in series [2] (setting [5]), the pest or weed control at 100 ppm fell in the range of 50 to 100%. Moreover, the pest or weed control at 100 ppm in series [2] (setting [6]) lay in the range of 0 to 50%.

`COc1ccnc(C(=O)N[C@H]2COC(=O)[C@H](Cc3cncnc3)[C@@H](OC(=O)C(C)C)[C@H](C)OC2=O)c1O` [Compound 14] yielded a melting point of 169 to 175 °C. Also, the pest or weed control at 100 ppm in series [1] (setting [3]) lay within 50 to 100%. The pest or weed control at 100 ppm in series [1] (setting [4]) is 50 to 100%. In addition, the pest or weed control at 100 ppm in series [2] (setting [5]) was in the range of 0 to 50%. The pest or weed control at 100 ppm in series [2] (setting [6]) was in the range of 0 to 50%.

`COc1ccnc(C(=O)N[C@H]2COC(=O)[C@H](Cc3ccc(F)cc3)[C@@H](OC(=O)C(C)C)[C@H](C)OC2=O)c1O` [Compound 1, (3S,6S,7R,8R)-8-(4-fluorobenzyl)-3-(3-hydroxy-4-methoxypicolinamido)-6-methyl-4,9-dioxo-1,5-dioxonan-7-yl isobutyrate] showed a melting point of 208 to 210 °C. Moreover, the pest or weed control at 100 ppm in series [1] (setting [3]) lay within 50 to 100%. In series [1] (setting [4]), the pest or weed control at 100 ppm lay within 0 to 50%. Also, the pest or weed control at 100 ppm in series [2] (setting [5]) was in the range of 50 to 100%. The pest or weed control at 100 ppm in series [2] (setting [6]) lay within 0 to 50%.

`COc1ccnc(C(=O)N[C@H]2COC(=O)[C@H](Cc3ccc(-c4ccccc4)cc3)[C@@H](OC(=O)C(C)C)[C@H](C)OC2=O)c1O` [Compound 12]: the melting point lay in the range of 214 to 216 °C. Also, the pest or weed control at 100 ppm in series [1] (setting [3]) lay in the range of 50 to 100%. The pest or weed control at 100 ppm in series [1] (setting [4]) was in the range of 0 to 50%. The pest or weed control at 100 ppm in series [2] (setting [5]) lay within 50 to 100%. In series [2] (setting [6]), the pest or weed control at 100 ppm is 0 to 50%.

`COc1ccnc(C(=O)N[C@H]2COC(=O)[C@H](Cc3ccc(F)cc3F)[C@@H](OC(=O)C(C)C)[C@H](C)OC2=O)c1O` [Compound 10]: the melting point is 184 to 185 °C. Moreover, the pest or weed control at 100 ppm in series [1] (setting [3]) lay within 50 to 100%. Also, the pest or weed control at 100 ppm in series [1] (setting [4]) lay within 50 to 100%. Moreover, the pest or weed control at 100 ppm in series [2] (setting [5]) is 50 to 100%. In series [2] (setting [6]), the pest or weed control at 100 ppm was in the range of 0 to 50%.

Consider `COc1ccnc(C(=O)N[C@H]2COC(=O)[C@H](CCOC(=O)C3CC3)[C@@H](OC(=O)C(C)C)[C@H](C)OC2=O)c1O` [Compound 38], for which the melting point lay within 157 to 159 °C. In addition, the “PUCCRT 3DC Disease Control” value in series [1] (3 Day Curative) is “D”. Moreover, the pest or weed control at 100 ppm in series [1] (setting [3]) lay in the range of 50 to 100%. Further, in series [2] (setting [5]), the pest or weed control at 100 ppm fell in the range of 50 to 100%. In series [2] (setting [6]), the pest or weed control at 100 ppm is 0 to 50%.

In turn, `COc1ccnc(C(=O)N[C@H]2COC(=O)[C@H](CC(=O)OC(C)(C)C)[C@@H](OC(=O)C(C)C)[C@H](C)OC2=O)c1O` [Compound 47, (3S,6S,7R,8R)-8-(2-tert-butoxy-2-oxoethyl)-3-(3-hydroxy-4-methoxypicolinamido)-6-methyl-4,9-dioxo-1,5-dioxonan-7-yl isobutyrate] came in with a melting point of 192 to 194 °C. Moreover, the pest or weed control at 100 ppm in series [1] (setting [3]) was in the range of 50 to 100%. Further, the pest or weed control at 100 ppm in series [1] (setting [4]) fell in the range of 50 to 100%. Further, in series [2] (setting [5]), the pest or weed control at 100 ppm fell in the range of 50 to 100%. The pest or weed control at 100 ppm in series [2] (setting [6]) lay in the range of 50 to 100%.

The compound `COc1ccnc(C(=O)N[C@H]2COC(=O)[C@H](CCOC=O)[C@@H](OC(=O)C(C)C)[C@H](C)OC2=O)c1O` [Compound 51, (3S,6S,7R,8R)-8-(2-(formyloxy)ethyl)-3-(3-hydroxy-4-methoxypicolinamido)-6-methyl-4,9-dioxo-1,5-dioxonan-7-yl isobutyrate] came in with a melting point of 103 to 105 °C. For the same compound, the “PUCCRT 3DC Disease Control” value in series [1] (3 Day Curative) is “D”. Further, in series [1] (setting [3]), the pest or weed control at 100 ppm fell in the range of 50 to 100%. The pest or weed control at 100 ppm in series [2] (setting [5]) fell in the range of 0 to 50%. For the same compound, the pest or weed control at 100 ppm in series [2] (setting [6]) lay in the range of 0 to 50%.

Regarding `COc1ccnc(C(=O)N[C@H]2COC(=O)[C@H](CCOC(=O)c3ccccc3)[C@@H](OC(=O)C(C)C)[C@H](C)OC2=O)c1O` [Compound 35, 2-((3S,7R,8R,9S)-3-(3-hydroxy-4-methoxypicolinamido)-8-(isobutyryloxy)-9-methyl-2,6-dioxo-1,5-dioxonan-7-yl)ethyl benzoate], the melting point was in the range of 172 to 174 °C. The “PUCCRT 3DC Disease Control” value in series [1] (3 Day Curative) was “D”. Moreover, the pest or weed control at 100 ppm in series [1] (setting [3]) fell in the range of 50 to 100%. In addition, in series [2] (3 Day Curative), the “SEPTTR 3DC Disease Control” value is given as “D”. In addition, the pest or weed control at 100 ppm in series [2] (setting [5]) was in the range of 50 to 100%.
